Experimental data reported in patent publication US8952024B2, “Herbicidal pyrimidone derivatives” (E I du Pont de Nemours and Company, priority 2009, dated 2015).

Assays:
Assay type in all cases: in vivo
[1] = tested on: wheat (Triticum aestivum); assay: Test A pre-/postemergence plant response
Procedure, shortened: (§1)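 Approximately ten days after concurrent pre- and postemergence spraying in a greenhouse, plants were compared with untreated controls and rated visually for injury, 0 = no effect to 100 = complete control. Preemergence spray was directed onto loam/sand soil; postemergence targeted 1–2 leaf seedlings.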

corn (Zea mays) = assay: Test A pre-/postemergence plant response; details: for Corn plant response rating: visual injury, 0 to 100 scale (0 no effect, 100 complete control), approx. ten days
Procedure, shortened: as §1

[2] = tested on: large crabgrass (Digitaria sanguinalis); assay: Test A pre-/postemergence plant response; details: for Crabgrass, Large plant response rating: visual injury, 0 to 100 scale (0 no effect, 100 complete control), approx. ten days
Procedure, shortened: as §1

[3] = tested on: pigweed (Amaranthus retroflexus); assay: Test A pre-/postemergence plant response
Procedure, shortened: as §1

[4] = tested on: barnyardgrass (Echinochloa crus-galli); assay: Test A pre-/postemergence plant response; details: for Barnyardgrass plant response rating: visual injury, 0 to 100 scale (0 no effect, 100 complete control), approx. ten days
Procedure, shortened: as §1

[5] = tested on: giant foxtail (Setaria faberii); assay: Test A pre-/postemergence plant response
Procedure, shortened: as §1

[6] = tested on: velvetleaf (Abutilon theophrasti); assay: Test A pre-/postemergence plant response
Procedure, shortened: as §1

[7] = tested on: morningglory (Ipomoea spp.); assay: Test A pre-/postemergence plant response
Procedure, shortened: as §1

[8] = tested on: windgrass (Apera spica-venti); assay: Test B postemergence plant response; details: Postemergence
Procedure, shortened: (§2)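 Plants grown in peat/vermiculite medium were sprayed postemergence at 2–18 cm height (1- to 4-leaf stage). After 13–15 days in the greenhouse, response was rated visually against untreated controls on a 0–100 scale (0 no effect, 100 complete control).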

[9] = tested on: canarygrass (Phalaris minor); assay: Test B postemergence plant response; details: Postemergence
Procedure, shortened: as §2

[10] = tested on: winter barley (Hordeum vulgare); assay: Test B postemergence plant response; details: Postemergence
Procedure, shortened: as §2

[11] = tested on: chickweed (Stellaria media); assay: Test B postemergence plant response; details: Postemergence
Procedure, shortened: as §2

[12] = Postemergence, 125 g ai/ha, visual injury, 0 to 100 scale (0 no effect, 100 complete control), approx. ten days
[13] = Postemergence, 500 g ai/ha, visual injury, 0 to 100 scale (0 no effect, 100 complete control), approx. ten days
[14] = Preemergence, 125 g ai/ha, 0 to 100 scale where 0 is no effect and 100 is complete control, approximately ten days
[15] = Preemergence, 500 g ai/ha, 0 to 100 scale, 0 = no effect, 100 = complete control
[16] = Postemergence, 125 g ai/ha, 0 to 100 scale where 0 is no effect and 100 is complete control
[17] = 31 g ai/ha, 0 to 100 scale (0 no effect, 100 complete control)
[18] = 62 g ai/ha, scale 0 to 100 (0 no effect, 100 complete control)
[19] = 125 g ai/ha, scale 0 (no effect) to 100 (complete control), 13 to 15 days
[20] = 250 g ai/ha, scale 0 to 100 (0 no effect, 100 complete control), 13 to 15 days

## CCCCn1c(-c2cc(F)cc(F)c2)ncc(C(=O)C2=C(O)C3CCC(C3)C2=O)c1=O (stereo not drawn) [Compound 245]
[1]; [12]
  Plant response rating, Wheat: 40
[1]; [13]
  Wheat plant response rating: 80
[1]; [14]
  Plant response rating, Wheat: 0
[1]; [15]
  Plant response rating, Wheat: 20
Corn (Zea mays); [16]
  Plant response rating, Corn: 40
Corn (Zea mays); Postemergence, 500 g ai/ha
  Corn plant response rating: 90
Corn (Zea mays); [14]
  Plant response rating, Corn: 0
Corn (Zea mays); [15]
  Plant response rating, Corn: 20
[2]; [16]
  Plant response rating, Crabgrass, Large: 90
[2]; Postemergence, 500 g ai/ha
  Crabgrass, Large plant response rating: 90
[2]; [14]
  Plant response rating, Crabgrass, Large: 80
[2]; [15]
  Plant response rating, Crabgrass, Large: 100
[3]; [12]
  Plant response rating, Pigweed: 100
[3]; [13]
  Pigweed plant response rating: 100
[3]; [14]
  Plant response rating, Pigweed: 80
[3]; [15]
  Plant response rating, Pigweed: 90
[4]; [16]
  Plant response rating, Barnyardgrass: 90
[4]; Postemergence, 500 g ai/ha
  Barnyardgrass plant response rating: 100
[4]; [14]
  Plant response rating, Barnyardgrass: 40
[4]; [15]
  Plant response rating, Barnyardgrass: 100
[5]; [12]
  Plant response rating, Foxtail, Giant: 100
[5]; [13]
  Foxtail, Giant plant response rating: 100
[5]; [14]
  Plant response rating, Foxtail, Giant: 80
[5]; [15]
  Plant response rating, Foxtail, Giant: 90
[6]; [12]
  Plant response rating, Velvetleaf: 100
[6]; [13]
  Velvetleaf plant response rating: 100
[6]; [14]
  Plant response rating, Velvetleaf: 70
[6]; [15]
  Plant response rating, Velvetleaf: 100
[7]; [12]
  Plant response rating, Morningglory: 100
[7]; [13]
  Morningglory plant response rating: 100
[7]; [14]
  Plant response rating, Morningglory: 20
[7]; [15]
  Plant response rating, Morningglory: 60
[8]; [17]
  Plant response rating, Windgrass: 65
[8]; [18]
  Plant response rating, Windgrass: 70
[8]; [19]
  Plant response rating, Windgrass: 95
[8]; [20]
  Plant response rating, Windgrass: 98
[9]; [17]
  Plant response rating, Canarygrass: 80
[9]; [18]
  Plant response rating, Canarygrass: 95
[9]; [19]
  Plant response rating, Canarygrass: 100
[9]; [20]
  Plant response rating, Canarygrass: 100
[10]; [17]
  Plant response rating, Barley: 45
[10]; [18]
  Plant response rating, Barley: 85
[10]; [19]
  Plant response rating, Barley: 85
[10]; [20]
  Plant response rating, Barley: 95
[11]; [17]
  Plant response rating, Chickweed: 80
[11]; [18]
  Plant response rating, Chickweed: 85
[11]; [19]
  Plant response rating, Chickweed: 100
[11]; [20]
  Plant response rating, Chickweed: 100

## CCc1ccccc1-n1c(-c2ccccc2)ncc(C(=O)C2=C(O)CCCC2=O)c1=O [Compound 255]
[1]; [12]
  Plant response rating, Wheat: 10
[1]; [13]
  Wheat plant response rating: 50
[1]; [14]
  Plant response rating, Wheat: 0
[1]; [15]
  Plant response rating, Wheat: 0
Corn (Zea mays); [16]
  Plant response rating, Corn: 30
Corn (Zea mays); Postemergence, 500 g ai/ha
  Corn plant response rating: 70
Corn (Zea mays); [14]
  Plant response rating, Corn: 0
Corn (Zea mays); [15]
  Plant response rating, Corn: 0
[2]; [16]
  Plant response rating, Crabgrass, Large: 90
[2]; Postemergence, 500 g ai/ha
  Crabgrass, Large plant response rating: 100
[2]; [14]
  Plant response rating, Crabgrass, Large: 20
[2]; [15]
  Plant response rating, Crabgrass, Large: 90
[3]; [12]
  Plant response rating, Pigweed: 90
[3]; [13]
  Pigweed plant response rating: 100
[3]; [14]
  Plant response rating, Pigweed: 70
[3]; [15]
  Plant response rating, Pigweed: 90
[4]; [16]
  Plant response rating, Barnyardgrass: 90
[4]; Postemergence, 500 g ai/ha
  Barnyardgrass plant response rating: 100
[4]; [14]
  Plant response rating, Barnyardgrass: 10
[4]; [15]
  Plant response rating, Barnyardgrass: 100
[5]; [12]
  Plant response rating, Foxtail, Giant: 90
[5]; [13]
  Foxtail, Giant plant response rating: 90
[5]; [14]
  Plant response rating, Foxtail, Giant: 0
[5]; [15]
  Plant response rating, Foxtail, Giant: 50
[6]; [12]
  Plant response rating, Velvetleaf: 100
[6]; [13]
  Velvetleaf plant response rating: 100
[6]; [14]
  Plant response rating, Velvetleaf: 60
[6]; [15]
  Plant response rating, Velvetleaf: 100
[7]; [12]
  Plant response rating, Morningglory: 100
[7]; [13]
  Morningglory plant response rating: 100
[7]; [14]
  Plant response rating, Morningglory: 40
[7]; [15]
  Plant response rating, Morningglory: 60
[8]; [17]
  Plant response rating, Windgrass: 50
[8]; [18]
  Plant response rating, Windgrass: 80
[8]; [19]
  Plant response rating, Windgrass: 80
[8]; [20]
  Plant response rating, Windgrass: 95
[9]; [17]
  Plant response rating, Canarygrass: 50
[9]; [18]
  Plant response rating, Canarygrass: 50
[9]; [19]
  Plant response rating, Canarygrass: 50
[9]; [20]
  Plant response rating, Canarygrass: 60
[10]; [17]
  Plant response rating, Barley: 30
[10]; [18]
  Plant response rating, Barley: 35
[10]; [19]
  Plant response rating, Barley: 35
[10]; [20]
  Plant response rating, Barley: 50
[11]; [17]
  Plant response rating, Chickweed: 95
[11]; [18]
  Plant response rating, Chickweed: 98
[11]; [19]
  Plant response rating, Chickweed: 100
[11]; [20]
  Plant response rating, Chickweed: 100
